Reference: patent US11358969B2, “Indole AHR inhibitors and uses thereof” (Ikena Oncology, Inc., priority 2017, dated 2022)
pIC50: −log10 of the molar value.

Target: T1, AHR (UniProt P35869)
T1 construct: IC50
T1 sequence (P35869 1-848): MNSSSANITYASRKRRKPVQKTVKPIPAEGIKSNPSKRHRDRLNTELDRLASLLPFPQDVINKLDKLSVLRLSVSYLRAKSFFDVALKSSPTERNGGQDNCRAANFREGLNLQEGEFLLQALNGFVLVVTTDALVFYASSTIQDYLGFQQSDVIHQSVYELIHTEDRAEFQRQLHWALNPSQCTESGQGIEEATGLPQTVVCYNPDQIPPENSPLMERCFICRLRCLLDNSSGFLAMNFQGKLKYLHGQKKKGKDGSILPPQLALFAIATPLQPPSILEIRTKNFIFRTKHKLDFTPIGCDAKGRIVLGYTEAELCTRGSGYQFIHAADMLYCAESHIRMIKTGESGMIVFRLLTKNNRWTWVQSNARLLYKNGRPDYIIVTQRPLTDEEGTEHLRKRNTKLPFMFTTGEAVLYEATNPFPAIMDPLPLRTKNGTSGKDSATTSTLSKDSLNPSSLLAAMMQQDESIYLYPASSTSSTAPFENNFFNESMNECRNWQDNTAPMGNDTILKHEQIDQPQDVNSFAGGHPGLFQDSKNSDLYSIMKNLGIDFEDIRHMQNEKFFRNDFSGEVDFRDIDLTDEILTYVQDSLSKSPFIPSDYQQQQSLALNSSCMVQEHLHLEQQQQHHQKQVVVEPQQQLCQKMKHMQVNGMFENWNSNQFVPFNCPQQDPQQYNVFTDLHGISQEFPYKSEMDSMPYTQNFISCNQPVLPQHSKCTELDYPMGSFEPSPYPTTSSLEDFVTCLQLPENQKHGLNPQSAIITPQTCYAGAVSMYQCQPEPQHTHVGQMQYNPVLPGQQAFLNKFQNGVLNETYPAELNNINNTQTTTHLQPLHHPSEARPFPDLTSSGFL
Experiment: DRE-Luciferase Reporter Assay (Alternate Method) (Example 1B)
Type: cell-based, murine or human
Conditions: cell line and AHR activating ligand not specified
Protocol: AHR binds to Dioxin Responsive Elements (DRE) upstream of genes that it activates. One measure of AHR activity is activation of a reporter gene, such as luciferase, downstream of one or multiple DRE elements. Luciferase activity will reflect activation and inhibition of AHR in the cells expressing his reporter.
Murine Hepa1-6 or Hepa-1c1c7 or other murine cell line with a DRE-luciferase reporter either stably or transiently transfected were plated in media in plates (96-well, 384-well or other plates) and incubated overnight at 37° C. in a CO2 incubator or compound and agonist were added at the time of plating. Likewise, human HepG2 or other human cell line with a DRE-luciferase reporter either stably or transiently transfected were plated in media in plates (96-well, 384-well or other plates) and incubated overnight at 37° C. in a CO2 incubator or compound and agonist were added at the time of plating.
At the time that cells are plated or following incubation overnight, an AHR activating ligand, such as TCDD, kynurenine, ITE (2-(1H-indole-3-ylcarbonyl)-4-thiazolecarboxylic methyl ester), VAF347, BNF (beta-naphthoflavone), FICZ (6-formylindolo(3,2-b) carbazole or other AHR ligands, was added with or without AHR antagonist.
Cells were incubated for 4, 15 or 24 hours or another time point and then lysed for determination of luciferase activity as a read-out of the AHR activation or inhibition. Luciferase was measured with a commercial kit such as the Promega Luciferase kit or any kit or reagents that provide the luciferin substrate for measuring luciferase activity. The level of luciferase with only activating ligand added was the maximum signal while the luciferase with no ligand was the minimum signal. IC50 values were determined as the concentration which inhibits half of the luciferase activity.

Compared with Cc1cnn2c(NCC(C)c3c[nH]c4ccccc34)cc(-c3cncc(F)c3)nc12 (stereo not drawn) [I-171, 5-(5-Fluoro-3-pyridyl)-N-[2-(1H-indol-3-yl)propyl]-3-methyl-pyrazolo[1,5-a]pyrimidin-7-amine], Cc1cnn2c(NC[C@@H](C)c3c[nH]c4ccccc34)cc(-c3cncc(F)c3)nc12 [I-160a, 5-(5-Fluoro-3-pyridyl)-N-[(2S)-2-(1H-indol-3-yl)propyl]-3-methyl-pyrazolo[1,5-a]pyrimidin-7-amine] is lower in pIC50: 5.82 to 6.00 for the first, under 5.82 for the second.

O=C(c1cnn2c(N[C@@H]3CCc4[nH]c5ccccc5c4C3)cc(-c3cncc(F)c3)nc12)N1CCOCC1 [I-24, [5-(5-Fluoro-3-pyridyl)-7-[[(3R)-2,3,4,9-tetrahydro-1H-carbazol-3-yl]amino]pyrazolo[1,5-a]pyrimidin-3-yl]-morpholino-methanone] and Cc1cnn2c(N[C@@H]3CCc4[nH]c5ccccc5c4C3)cc(-c3cncc(F)c3)nc12 [I-34, (3R)—N-[5-(5-Fluoro-3-pyridyl)-3-methyl-pyrazolo[1,5-a]pyrimidin-7-yl]-2,3,4,9-tetrahydro-1H-carbazol-3-amine] cannot be ordered by pIC50: under 5.82 for the first, under 5.82 for the second.

Going from CC(C)n1cnc2c(NCCc3c[nH]c4ccncc34)nc(-c3cncc(F)c3)nc21 [I-8, 2-(5-Fluoro-3-pyridyl)-9-isopropyl-N-[2-(1H-pyrrolo[3,2-c]pyridin-3-yl)ethyl]purin-6-amine] to CC(C)n1cnc2c(NCCc3c[nH]c4c(F)cc(F)cc34)nc(-c3cncc(F)c3)nc21 [I-23, N-[2-(5,7-Difluoro-1H-indol-3-yl)ethyl]-2-(5-fluoro-3-pyridyl)-9-isopropyl-purin-6-amine], the pIC50 rises from under 5.82 to over 6.30. The second is the more potent here.

Going from CC(C)c1cnn2c(N[C@@H]3CCc4nc(N)sc4C3)nc(-c3cncc(F)c3)nc12 [I-128b, (6R)—N6-[2-(5-Fluoro-3-pyridyl)-8-isopropyl-pyrazolo[1,5-a][1,3,5]triazin-4-yl]-4,5,6,7-tetrahydro-1,3-benzothiazole-2,6-diamine] to CC(C)c1cnn2c(N[C@H]3CCc4[nH]c(-c5ccccc5)cc4C3)nc(-c3cncc(F)c3)nc12 [I-249a, 2-(5-Fluoro-3-pyridyl)-8-isopropyl-N-[(5S)-2-phenyl-4,5,6,7-tetrahydro-1H-indol-5-yl]pyrazolo[1,5-a][1,3,5]triazin-4-amine], the pIC50 rises from under 5.82 to over 6.30. The second is the more potent here.

CC(C)n1cnc2c(NCCn3cnc4ccccc43)nc(-c3cncc(F)c3)nc21 [I-13, N-(2-(1H-Benzo[d]imidazol-1-yl)ethyl)-2-(5-fluoropyridin-3-yl)-9-isopropyl-9H-purin-6-amine] and CC(C)n1cnc2c(NCCc3cn(C)c4ccccc34)nc(-c3cncc(F)c3)nc21 [I-14, 2-(5-Fluoropyridin-3-yl)-9-isopropyl-N-(2-(1-methyl-1H-indol-3-yl)ethyl)-9H-purin-6-amine] cannot be ordered by pIC50: under 5.82 for the first, under 5.82 for the second.

First: Fc1cncc(-c2nc(NC3CCc4[nH]c5ccccc5c4C3)n3ncc(-c4ncc[nH]4)c3n2)c1 (stereo not drawn) [I-273]
Second: C#Cc1cnn2c(NC3CCc4[nH]c5ccccc5c4C3)nc(-c3cncc(F)c3)nc12 (stereo not drawn) [I-282]
The pIC50 of the first is lower: 5.82 to 6.00 for the first, over 6.30 for the second. The second is the more potent here.

Compared with Cc1cnn2c(OCCc3c[nH]c4ccccc34)cc(-c3cncc(F)c3)nc12 [I-184], Cc1c(-c2cncc(F)c2)nc2c(C)cnn2c1NCCc1c[nH]c2ccccc12 [I-169, 5-(5-Fluoro-3-pyridyl)-N-[2-(1H-indol-3-yl)ethyl]-3,6-dimethyl-pyrazolo[1,5-a]pyrimidin-7-amine] is higher in pIC50: under 5.82 for the first, 6.00 to 6.30 for the second. The second is the more potent here.

Cc1cnn2c(NCCc3c[nH]c4ccc(O)cc34)cc(-c3cncc(F)c3)nc12 [I-215, 3-[2-[[5-(5-Fluoro-3-pyridyl)-3-methyl-pyrazolo[1,5-a]pyrimidin-7-yl]amino]ethyl]-1H-indol-5-ol] and Cc1cnn2c(NCCc3c[nH]c4c(O)cc(O)cc34)cc(-c3cncc(F)c3)nc12 [I-149] cannot be ordered by pIC50: under 5.82 for the first, under 5.82 for the second.

Going from CC(C)c1cnn2c(NC3CCc4[nH]c5ccccc5c4C3)nc(-c3cncc(C(F)(F)F)c3)nc12 (stereo not drawn) [I-279] to CC(C)c1cnn2c(N[C@@H]3CCc4[nH]c5ccccc5c4C3)nc(-c3cccnc3)nc12 [I-255, (3R)—N-[8-Isopropyl-2-(3-pyridyl)pyrazolo[1,5-a][1,3,5]triazin-4-yl]-2,3,4,9-tetrahydro-1H-carbazol-3-amine], the pIC50 rises from under 5.82 to over 6.30. The second is the more potent here.

First: CC(C)c1cnn2c(NC3CCc4[nH]c5ccccc5c4C3)nc(-c3ccnnc3)nc12 (stereo not drawn) [I-284]
Second: CC(C)c1cnn2c(NC3Cc4[nH]c5ccccc5c4C3)nc(-c3cncc(F)c3)nc12 (stereo in doubt) [I-263a, (2S)—N-[2-(5-Fluoro-3-pyridyl)-8-isopropyl-pyrazolo[1,5-a][1,3,5]triazin-4-yl]-1,2,3,4-tetrahydrocyclopenta[b]indol-2-amine]
The pIC50 of the first is higher: 6.00 to 6.30 for the first, 5.82 to 6.00 for the second.

NC(=O)c1cnn2c(N[C@@H]3CCc4[nH]c5ccccc5c4C3)nc(-c3cncc(F)c3)nc12 [I-265, 2-(5-Fluoro-3-pyridyl)-4-[[(3R)-2,3,4,9-tetrahydro-1H-carbazol-3-yl]amino]pyrazolo[1,5-a][1,3,5]triazine-8-carboxamide] and Fc1cncc(-c2nc(NC3CCc4[nH]c5ccccc5c4C3)n3ncc(CNC4CC4)c3n2)c1 (stereo not drawn) [I-276] cannot be ordered by pIC50: over 6.30 for the first, over 6.30 for the second.

First: CC(C)c1cnn2c(NC3CCc4cc(O)ccc4C3)cc(-c3cncc(F)c3)nc12 (stereo in doubt) [I-82b, (2R)-2-[[5-(5-fluoro-3-pyridyl)-3-isopropyl-pyrazolo[1,5-a]pyrimidin-7-yl]amino]tetralin-6-ol]
Second: C[C@H](O)c1cnn2c(N[C@@H]3CCc4[nH]c5ccccc5c4C3)cc(-c3cncc(F)c3)nc12 [I-198b, (1S)-1-[5-(5-fluoro-3-pyridyl)-7-[[(3R)-2,3,4,9-tetrahydro-1H-carbazol-3-yl]amino]pyrazolo[1,5-a]pyrimidin-3-yl]ethanol]
The pIC50 of the first is lower: under 5.82 for the first, 6.00 to 6.30 for the second.

Fc1cncc(-c2cc(NCCc3c[nH]c4ccccc34)n3ncc(C4CCCO4)c3n2)c1 (stereo not drawn) [I-226, 5-(5-Fluoro-3-pyridyl)-N-[2-(1H-indol-3-yl)ethyl]-3-tetrahydrofuran-2-yl-pyrazolo[1,5-a]pyrimidin-7-amine] and OCc1cnn2c(NCCc3c[nH]c4c(O)cccc34)cc(-c3cncc(F)c3)nc12 [I-133, 3-[2-[[5-(5-fluoro-3-pyridyl)-3-(hydroxymethyl)pyrazolo[1,5-a]pyrimidin-7-yl]amino]ethyl]-1H-indol-7-ol] cannot be ordered by pIC50: over 6.30 for the first, over 6.30 for the second.

Going from Fc1cncc(-c2nccc(NCCc3c[nH]c4ccccc34)n2)c1 [I-148] to Fc1cncc(-c2nc(NCCc3c[nH]c4ccccc34)c3ncccc3n2)c1 [I-257, 2-(5-Fluoro-3-pyridyl)-N-[2-(1H-indol-3-yl)ethyl]pyrido[3,2-d]pyrimidin-4-amine], the pIC50 rises from under 5.82 to over 6.30.

First: CC(C)c1cnn2c(NCCc3c[nH]c4ccccc34)cc(-c3cncnc3)nc12 [I-241, N-[2-(1H-Indol-3-yl)ethyl]-3-isopropyl-5-pyrimidin-5-yl-pyrazolo[1,5-a]pyrimidin-7-amine]
Second: CC(C)c1cnn2c(NCCc3c[nH]c4ccccc34)ccnc12 [I-31, N-[2-(1H-indol-3-yl)ethyl]-3-isopropyl-pyrazolo[1,5-a]pyrimidin-7-amine]
The pIC50 of the first is higher: over 6.30 for the first, under 5.82 for the second.

First: CC(C)(C)c1cnn2c(NCCc3c[nH]c4ccccc34)nc(-c3cncc(F)c3)nc12 [I-131, N-(2-(1H-Indol-3-yl)ethyl)-8-(tert-butyl)-2-(5-fluoropyridin-3-yl)pyrazolo[1,5-a][1,3,5]triazin-4-amine]
Second: Cc1cnn2c(NCCc3cccc(O)c3)cc(-c3cncc(F)c3)nc12 [I-210, 3-[2-[[5-(5-fluoro-3-pyridyl)-3-methyl-pyrazolo[1,5-a]pyrimidin-7-yl]amino]ethyl]phenol]
The pIC50 of the first is higher: over 6.30 for the first, 5.82 to 6.00 for the second.

With Cc1c(-c2cncc(F)c2)nc2c(C)cnn2c1N[C@@H]1CCc2[nH]c3ccccc3c2C1 [I-157] the pIC50 was under 5.82.
